Here are results for 15 compounds from patent publication US20230355622A1, “METHODS OF CHEMOVACCINATION AGAINST PLASMODIUM INFECTIONS” (Merck Sharp & Dohme LLC, priority 2020, published 2023).

Read-outs that look alike come from different tables or passages of the source.

For one experiment, the system named is parasite. Briefly: Parasite LDH growth assay (Parasite Assay), antiparasite potency. The experiment is classed as cell-based. To be noted: parasite LDH growth assay, ring stage parasites, 72 hours incubation at 37° C., read-out: EC50. Put shortly: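 Ring-stage parasites at 0.7% parasitemia and 2% haematocrit, in RPMI-Hepes/bicarbonate with 5% heat-inactivated human serum and 0.5% albumax, were added to compound-containing medium. Cultures grew 72 h at 37 °C in gassed humidified boxes. Plates were then frozen overnight at −80 °C, thawed 4 h, and growth was measured by LDH assay.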

Experiment [1] has as its system PbmCherryLuci sporozoites. Briefly: Inhibition of liver to blood transition in C57BL/6 mice (FIG. 8). It is filed as in vivo, Plasmodium berghei. On the procedure:
40,000 PbmCherryLuci sporozoites (or the indicated number of sporozoites) were inoculated i.v. and compounds were administered by oral gavage at indicated time points during liver infection. Liver infection levels and egress of parasites from the liver were measured by bioluminescence signal from the parasites using an In Vivo Imaging System (IVIS, Perkin Elmer) at the peak of liver infection (52 hours post infection, hpi), during liver egress (55 hpi) as well as during the first round of blood infection (65 hpi). Initiation of blood infection was also measured by flow cytometry at 65 hpi using the mCherry reporter to determine the parasitemia of this first round of blood infection. These analyses allowed quantification of the efficacy of drug killing of parasites in the liver (52 hpi), preventing their egress from the liver (55 hpi) or preventing their successful infection of the blood (65 hpi). Mice were monitored by giemsa stained thin blood smears for the presence of parasites in the blood for 30 days post infection. If no blood infection was seen during the subsequent 30 days, mice were declared cured of malaria infection.
C57BL/6 mice were administered Example 1A or Example 75A as described in the general experimental procedure.

The subject of a further experiment is PbmCherryLuci. The experiment can be described thus: Prime/boost immunisation of C57BL/6 mice with Example 75A, mosquito bite challenge (FIG. 9). It is filed as in vivo, Plasmodium berghei. To be noted: female C57BL/6, prime/boost, 2 x 500 mg/kg P.O. at 36 and 48 h; 10 mosquito bites at 12 weeks after prime. As for the experimental part: To investigate if chemoprophylaxis with Example 75A would serve as a chemovaccination as does Example IA, female C57BL/6 mice were immunized using a prime/boost regimen. The first immunisation was with 40,000 PbmCherryLuci salivary gland sporozoites i.v. followed by two doses of Example 75A at 500 mg/kg P.O. (given at 36 and 48 hours post infection). The second immunisation (boost) was six weeks later, this time with 20,000 PbmCherryLuci sporozoites but with Example 75A treatment as for the prime immunisation. Six weeks after the boost immunisation (twelve weeks after the prime immunisation) the immunised mice were challenged with the bites of 10 PbmCherryLuci infected mosquitoes for 15 minutes. Giemsa stained thin blood smears were analysed until day 30 for the presence of parasites in the blood and mice were considered to be protected from infection if no blood parasites were observed within the 30 days post mosquito bite challenge.

The test system of experiment [2] is PMIX. Briefly: Cleavage of PMIX substrates RAP1 and ASP in parasite extracts. The experiment is classed as cell-based, P. falciparum. As for the experimental part: To confirm that Example 1A was a dual inhibitor of PMIX and PMX function, the ability of this compound to inhibit cleavage of the known PMIX substrate Rhoptry Associated Protein 1 (RAPI) in parasite extracts was tested (Pino et al., 2017). RAP1 is a merozoite rhoptry protein that is localized to the parasitophorous vacuole after invasion and processed by both PMIX and SUB1 (Pino et al., 2017). […] RAP1 was not released into the parasite supernatant because it was deposited in the parasitophorous vacuole during the invasion process (Baldi, D., Andrews, K., Waller, R., Roos, D., Howard, R., Crabb, B. and Cowman, A. (2000)). RAP1 controls rhoptry targeting of RAP2 in the malaria parasite Plasmodium falciparum. Embo Journal 19, 2435-2443.

The test system of experiment [3] is PMIX. Briefly: Autocatalytic processing of PMIX to p55. As to conditions: P. falciparum parasite. It is filed as cell-based. The source says:
The development of Example 1A as a PMIX/PMX dual inhibitor of the P. falciparum parasite has allowed for the analysis of the function of these aspartic acid proteases. To do this, PMIX was processed to a 55 kDa (p55) protein and this was not inhibited by E64.

The next experiment concerns the target PMX (Plasmodium falciparum, UniProt Q8IAS0). Further details: endogenous in cells. As to conditions: negative control, literature (Salmon et al. 2001); cited from earlier work.

PMX, sequence (Q8IAS0 222-573): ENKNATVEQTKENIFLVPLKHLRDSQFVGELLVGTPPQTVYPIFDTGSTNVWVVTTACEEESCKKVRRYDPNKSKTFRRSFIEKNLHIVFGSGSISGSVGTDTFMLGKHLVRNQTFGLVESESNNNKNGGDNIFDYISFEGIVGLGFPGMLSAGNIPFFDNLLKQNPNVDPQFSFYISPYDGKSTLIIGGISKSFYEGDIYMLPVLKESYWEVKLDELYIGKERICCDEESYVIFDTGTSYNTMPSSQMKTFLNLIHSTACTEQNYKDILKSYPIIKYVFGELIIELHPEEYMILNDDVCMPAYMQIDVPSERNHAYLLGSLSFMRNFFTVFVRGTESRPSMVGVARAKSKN

For `CCC1(CC)CC(=O)N([C@H]2c3cc(C(=O)N[C@@H]4c5ccccc5C[C@H]4O)ccc3O[C@@]2(C)COC)C(=N)N1` [Example 75A, (2R,3S)-3-(4,4-diethyl-2-imino-6-oxotetrahydropyrimidin-1(2H)-yl)-N-((1R,2R)-2-hydroxy-2,3-dihydro-1H-inden-1-yl)-2-(methoxymethyl)-2-methyl-2,3-dihydrobenzofuran-5-carboxamide], the concentration for a half-maximal effect (EC50) in the experiment on parasite (72 h) was determined as 0.4 nM. Besides, the mice protected was 8 mice in experiment [1] (300 mg/kg) and 10/11 in experiment [1] (500 mg/kg). Besides, the “detection of parasites in the blood” value in experiment [1] (lower doses (below 300 mg/kg)) is on record as “large delays in the detection of parasites in the blood”. In addition, the “sterile protection from reinfection” value in the experiment with PbmCherryLuci turned out to be 100%.

`CC(C)C[C@H](NC(=O)[C@H]1O[C@@H]1C(=O)O)C(=O)NCCCCN=C(N)N` [Example E64, reference compound]: the “RAP1 processing by PMIX and SUB1” value with PMIX [2] (treated parasites/merozoites, processed forms p82 and p69, unprocessed p87) is “processed normally by PMIX and SUB1”. Besides, the “Apical Sushi Protein (ASP) processing by PMIX” value in the experiment on PMIX [2] (treated parasites, p47 processed, p87 full-length) was “processed into a 47 kDa polypeptide (p47)”. Further, the “PMIX processing to 55 kDa (p55) protein” value with PMIX [3] is “not inhibited”. Besides, the SERA5 processing entry at PMX was “does not affect SERA5 processing”.

Regarding `CC1(C)CC(=O)N([C@@H]2CCOc3ccc(C(=O)N[C@@H]4c5cc(F)ccc5OC(C)(C)[C@H]4O)cc32)C(=N)N1` [Example 189, (4R)-N-[(3S,4R)-6-fluoro-3-hydroxy-2,2-dimethyl-chroman-4-yl]-4-(2-imino-4,4-dimethyl-6-oxo-hexahydropyrimidin-1-yl)chromane-6-carboxamide], in the experiment with parasite (72 h), the EC50 turned out to be 1 nM.

On to `CC1(C)CC(=O)N([C@@H]2CCc3ccc(C(=O)N[C@H]4CC(C)(C)Oc5ccccc54)cc32)C(=N)N1` [Example 84, (3R)-N-[(4S)-2,2-dimethylchroman-4-yl]-3-(2-imino-4,4-dimethyl-6-oxo-hexahydropyrimidin-1-yl)indane-5-carboxamide], for which the EC50 in the experiment on parasite (72 h) stood at 0.9 nM.

Regarding `CC[C@]1(C)CC(=O)N([C@H]2c3cc(C(=O)N[C@@H]4c5ccccc5OC(C)(C)[C@H]4O)ccc3OCC2(C)OC)C(=N)N1` (stereo partly drawn) [Example 284, 4-[(4R)-4-ethyl-2-imino-4-methyl-6-oxo-hexahydropyrimidin-1-yl]-N-[(3S,4R)-3-hydroxy-2,2-dimethyl-chroman-4-yl]-3-methoxy-3-methyl-chromane-6-carboxamide], the EC50 with parasite (72 h) is 8.5 nM.

For `CCC1(CC)CC(=O)N([C@@H]2CCOc3c(Cl)cc(C(=O)N[C@@H]4c5ccccc5OC(C)(C)[C@H]4O)cc32)C(=N)N1` [Example 29A, (R)-8-chloro-4-(4,4-diethyl-2-imino-6-oxotetrahydropyrimidin-1(2H)-yl)-N-((3S,4R)-3-hydroxy-2,2-dimethylchroman-4-yl)chromane-6-carboxamide], the EC50 in the experiment on parasite (72 h) is 1 nM.

In the case of `C[C@@H]1C[C@@H](N2C(=N)NC(C)(C)CC2=O)c2cc(C(=O)N[C@@H]3c4ccccc4OC(C)(C)[C@H]3O)ccc21` [Example 138, (1R,3R)-N-[(3S,4R)-3-hydroxy-2,2-dimethyl-chroman-4-yl]-3-(2-imino-4,4-dimethyl-6-oxo-hexahydropyrimidin-1-yl)-1-methyl-indane-5-carboxamide], the half-maximal effective concentration (EC50) in the experiment on parasite (72 h) is 0.9 nM.

Regarding `CCC1(CC)CC(=O)N([C@H]2c3cc(C(=O)N[C@@H]4c5ccccc5OC[C@@]4(C)O)ccc3CC[C@@H]2OC)C(=N)N1` [Example 247, (3S,4S)-4-(4,4-diethyl-2-imino-6-oxo-hexahydropyrimidin-1-yl)-N-[(3S,4R)-3-hydroxy-3-methyl-chroman-4-yl]-3-methoxy-tetralin-6-carboxamide], the EC50 in the experiment with parasite (72 h) came to 4.5 nM.

Regarding `CC[C@]1(C)CC(=O)N([C@H]2c3cc(C(=O)N[C@@H]4c5ccccc5OC(C)(C)[C@H]4O)ccc3C[C@H]2C)C(=N)N1` [Example 168, (2R,3R)-3-[(4R)-4-ethyl-2-imino-4-methyl-6-oxo-hexahydropyrimidin-1-yl]-N-[(3S,4R)-3-hydroxy-2,2-dimethyl-chroman-4-yl]-2-methyl-indane-5-carboxamide], in the experiment with parasite (72 h), the concentration giving a half-maximal response (EC50) amounted to 0.4 nM.

For `CC1(C)CC(=O)N([C@@H]2CC(F)(F)c3ccc(C(=O)N[C@@H]4c5ccccc5OC(C)(C)[C@H]4O)cc32)C(=N)N1` [Example 199, (3R)-1,1-difluoro-N-[(3S,4R)-3-hydroxy-2,2-dimethyl-chroman-4-yl]-3-(2-imino-4,4-dimethyl-6-oxo-hexahydropyrimidin-1-yl)indane-5-carboxamide], in the experiment with parasite (72 h), the EC50 was 1.1 nM.

Take `CCC1(CC)CC(=O)N([C@@H]2CCOc3ccc(C(=O)NC4c5ccccc5OC(C)(C)C4(C)O)cc32)C(=N)N1` (stereo partly drawn) [Example 242A, (4R)-4-(4,4-diethyl-2-imino-6-oxo-hexahydropyrimidin-1-yl)-N-(3-hydroxy-2,2,3-trimethyl-chroman-4-yl)chromane-6-carboxamide]: the EC50 with parasite was determined as 0.6 nM.

Turning to `CCC1(CC)CC(=O)N([C@H]2c3cc(C(=O)N[C@H]4CC(C)(C)Oc5ccccc54)ccc3OC[C@@H]2OC)C(=N)N1` [Example 68A, (3R,4S)-4-(4,4-diethyl-2-imino-6-oxotetrahydropyrimidin-1(2H)-yl)-N-((S)-2,2-dimethylchroman-4-yl)-3-methoxychromane-6-carboxamide], in the experiment on parasite (72 h), the EC50 worked out at 1 nM.

Turning to `CCC1(CC)CC(=O)N([C@@H]2CCOc3ccc(C(=O)N[C@H]4CC(C)(C)Oc5ccc(F)cc54)cc32)C(=N)N1` [Example 7A, (R)-4-(4,4-diethyl-2-imino-6-oxotetrahydropyrimidin-1(2H)-yl)-N-((S)-6-fluoro-2,2-dimethylchroman-4-yl)chromane-6-carboxamide], the EC50 in the experiment on parasite (72 h) was 0.4 nM.

For `CC(C)[C@]1(C)CC(=O)N([C@@H]2CCOc3ccc(C(=O)NC4c5ccccc5OC(C)(C)C4O)cc32)C(=N)N1` (single isomer, unassigned) [Example 11A], the concentration giving a half-maximal response (EC50) in the experiment on parasite (72 h) came to 0.9 nM.

As to `CCC1(CC)CC(=O)N([C@H]2c3cc(C(=O)N[C@@H]4c5ccccc5OC(C)(C)[C@H]4O)ccc3OC[C@@H]2C)C(=N)N1` [Example 240, (3R,4R)-4-(4,4-diethyl-2-imino-6-oxo-hexahydropyrimidin-1-yl)-N-[(3S,4R)-3-hydroxy-2,2-dimethyl-chroman-4-yl]-3-methyl-chromane-6-carboxamide], the EC50 in the experiment with parasite (72 h) amounted to 0.6 nM.
